According to patent US8415469B2, “Compounds and methods for kinase modulation, and indications therefor” (Plexxikon Inc., priority 2005, dated 2013):

Key:
Format in all cases: biochemical
B-Raf = biological target: T1, B-Raf (Homo sapiens, UniProt P15056); assay: AlphaScreen kinase assay, B-Raf; settings: read-out: IC50, activity toward kinase B-Raf
T1 construct: purchased Upstate Biotechnology

B-Raf V600E = biological target: T2, B-Raf V600E (Homo sapiens, UniProt P15056, V600E); assay: AlphaScreen kinase assay, B-Raf V600E; settings: read-out: IC50, activity toward kinase B-Raf V600E
T2 construct: P4254. pFastBacBD-CDC37 BRAF D437-K722-X, V600E; His6 with pFastBac HT leader (TEV site) (N); made in house; host or cells: Sf9 (baculovirus; chaperone CDC37 co-expressed)

c-Raf-1 = biological target: T3, c-Raf-1 (Homo sapiens, UniProt P04049); assay: AlphaScreen kinase assay, c-Raf-1; settings: read-out: IC50, activity toward kinase c-Raf-1
T3 construct: purchased Upstate Biotechnology

Fms = biological target: T4, Fms (Homo sapiens, UniProt P07333); assay: AlphaScreen kinase assay, Fms; settings: read-out: IC50, activity toward kinase Fms
T4 construct: purchased Upstate Biotechnology

Kit = biological target: T5, Kit (Homo sapiens, UniProt P10721); assay: AlphaScreen kinase assay, Kit; settings: read-out: IC50, activity toward kinase Kit
T5 construct: P1332.N6 BI PTP KIT M552-K948-X COD; His6 (N); made in house; host or cells: E. coli (PTP1B co-expressed)

FGFR1 = biological target: T6, FGFR1 (Homo sapiens, UniProt P11362, C488A/C584S); assay: AlphaScreen kinase assay, FGFR1; settings: read-out: IC50, activity toward kinase FGFR
T6 construct: P1351.pET N6 BI-PTP FGFR A458-E765-X C488A, C584S; made in house; host or cells: E. coli (PTP1B co-expressed)

Flt1 = biological target: T7, Flt1 (Homo sapiens, UniProt P17948); assay: AlphaScreen kinase assay, Flt1; settings: read-out: IC50, activity toward kinase Flt1
T7 construct: P1826.pETN6 BI-PTP FLT1 M799-D1165-X WT; His6 (N); made in house; host or cells: E. coli (PTP1B co-expressed)
T7 sequence (P17948 with tags, fused parts or gaps): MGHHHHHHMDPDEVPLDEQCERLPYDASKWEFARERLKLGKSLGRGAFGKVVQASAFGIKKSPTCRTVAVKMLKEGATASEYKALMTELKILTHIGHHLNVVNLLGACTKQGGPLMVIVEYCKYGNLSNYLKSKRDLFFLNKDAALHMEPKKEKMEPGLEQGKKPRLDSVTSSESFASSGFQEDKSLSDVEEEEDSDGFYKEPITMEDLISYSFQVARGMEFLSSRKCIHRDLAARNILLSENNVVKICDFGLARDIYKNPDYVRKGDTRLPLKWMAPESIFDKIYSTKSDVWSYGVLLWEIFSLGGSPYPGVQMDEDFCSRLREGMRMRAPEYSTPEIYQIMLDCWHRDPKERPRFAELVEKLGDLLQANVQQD

Ret = biological target: T8, Ret (Homo sapiens, UniProt P07949); assay: AlphaScreen kinase assay, Ret; settings: read-out: IC50, activity toward kinase Ret
T8 construct: P1378.pET-SF BI-PTP RET H661-R1012 HIS; made in house
T8 sequence (P07949 with tags, fused parts or gaps): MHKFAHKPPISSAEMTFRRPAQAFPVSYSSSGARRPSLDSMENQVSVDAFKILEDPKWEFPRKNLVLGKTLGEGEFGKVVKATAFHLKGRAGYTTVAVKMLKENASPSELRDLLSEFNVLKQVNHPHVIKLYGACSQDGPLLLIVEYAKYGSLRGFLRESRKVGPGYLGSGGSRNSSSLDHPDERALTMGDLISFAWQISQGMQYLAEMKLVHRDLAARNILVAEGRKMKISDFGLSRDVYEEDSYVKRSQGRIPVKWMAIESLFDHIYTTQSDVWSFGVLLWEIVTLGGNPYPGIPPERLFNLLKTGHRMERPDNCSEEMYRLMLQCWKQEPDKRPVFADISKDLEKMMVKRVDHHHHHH

T2 sequence (P15056 with tags, fused parts or gaps V600E): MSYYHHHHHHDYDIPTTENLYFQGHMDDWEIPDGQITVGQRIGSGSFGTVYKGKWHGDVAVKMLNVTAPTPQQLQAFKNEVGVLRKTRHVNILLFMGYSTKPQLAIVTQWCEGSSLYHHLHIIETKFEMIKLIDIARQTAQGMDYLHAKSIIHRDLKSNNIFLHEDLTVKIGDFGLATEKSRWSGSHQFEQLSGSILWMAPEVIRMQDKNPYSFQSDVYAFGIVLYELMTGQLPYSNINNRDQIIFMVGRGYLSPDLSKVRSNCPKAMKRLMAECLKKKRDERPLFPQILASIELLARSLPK
T6 sequence (P11362 458-765 C488A/C584S): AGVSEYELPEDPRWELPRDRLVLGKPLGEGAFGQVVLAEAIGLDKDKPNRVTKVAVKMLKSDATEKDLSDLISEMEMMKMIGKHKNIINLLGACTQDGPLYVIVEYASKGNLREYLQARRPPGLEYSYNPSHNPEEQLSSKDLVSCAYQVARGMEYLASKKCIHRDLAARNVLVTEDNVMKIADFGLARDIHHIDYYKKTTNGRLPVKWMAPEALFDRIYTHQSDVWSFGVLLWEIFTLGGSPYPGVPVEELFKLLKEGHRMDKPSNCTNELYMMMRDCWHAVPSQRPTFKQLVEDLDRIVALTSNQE
T4 sequence (P07333 20-972): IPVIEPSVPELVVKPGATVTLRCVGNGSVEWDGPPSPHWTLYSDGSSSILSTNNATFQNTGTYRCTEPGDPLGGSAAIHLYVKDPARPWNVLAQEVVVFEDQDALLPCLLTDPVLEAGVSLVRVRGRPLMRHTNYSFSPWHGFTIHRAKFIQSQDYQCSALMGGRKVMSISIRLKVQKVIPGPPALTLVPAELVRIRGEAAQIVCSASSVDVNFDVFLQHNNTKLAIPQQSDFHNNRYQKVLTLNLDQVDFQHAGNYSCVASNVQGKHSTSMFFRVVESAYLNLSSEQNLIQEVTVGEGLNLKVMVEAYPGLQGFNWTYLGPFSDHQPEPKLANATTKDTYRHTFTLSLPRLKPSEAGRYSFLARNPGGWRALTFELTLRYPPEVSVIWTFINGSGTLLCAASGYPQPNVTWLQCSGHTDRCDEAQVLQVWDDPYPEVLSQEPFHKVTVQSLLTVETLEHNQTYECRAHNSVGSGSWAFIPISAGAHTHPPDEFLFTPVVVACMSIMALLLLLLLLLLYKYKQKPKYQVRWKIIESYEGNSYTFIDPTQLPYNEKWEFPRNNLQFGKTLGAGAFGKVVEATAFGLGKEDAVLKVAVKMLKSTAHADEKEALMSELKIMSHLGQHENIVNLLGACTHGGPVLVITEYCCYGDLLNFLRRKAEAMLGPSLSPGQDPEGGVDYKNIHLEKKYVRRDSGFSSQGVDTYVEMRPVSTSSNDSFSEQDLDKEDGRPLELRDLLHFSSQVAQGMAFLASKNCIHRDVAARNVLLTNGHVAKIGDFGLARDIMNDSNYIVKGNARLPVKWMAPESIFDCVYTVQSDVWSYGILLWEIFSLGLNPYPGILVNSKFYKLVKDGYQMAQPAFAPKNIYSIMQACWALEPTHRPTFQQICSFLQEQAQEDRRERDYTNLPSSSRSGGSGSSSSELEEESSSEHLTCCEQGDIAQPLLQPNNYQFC
T1 sequence (P15056 whole entry): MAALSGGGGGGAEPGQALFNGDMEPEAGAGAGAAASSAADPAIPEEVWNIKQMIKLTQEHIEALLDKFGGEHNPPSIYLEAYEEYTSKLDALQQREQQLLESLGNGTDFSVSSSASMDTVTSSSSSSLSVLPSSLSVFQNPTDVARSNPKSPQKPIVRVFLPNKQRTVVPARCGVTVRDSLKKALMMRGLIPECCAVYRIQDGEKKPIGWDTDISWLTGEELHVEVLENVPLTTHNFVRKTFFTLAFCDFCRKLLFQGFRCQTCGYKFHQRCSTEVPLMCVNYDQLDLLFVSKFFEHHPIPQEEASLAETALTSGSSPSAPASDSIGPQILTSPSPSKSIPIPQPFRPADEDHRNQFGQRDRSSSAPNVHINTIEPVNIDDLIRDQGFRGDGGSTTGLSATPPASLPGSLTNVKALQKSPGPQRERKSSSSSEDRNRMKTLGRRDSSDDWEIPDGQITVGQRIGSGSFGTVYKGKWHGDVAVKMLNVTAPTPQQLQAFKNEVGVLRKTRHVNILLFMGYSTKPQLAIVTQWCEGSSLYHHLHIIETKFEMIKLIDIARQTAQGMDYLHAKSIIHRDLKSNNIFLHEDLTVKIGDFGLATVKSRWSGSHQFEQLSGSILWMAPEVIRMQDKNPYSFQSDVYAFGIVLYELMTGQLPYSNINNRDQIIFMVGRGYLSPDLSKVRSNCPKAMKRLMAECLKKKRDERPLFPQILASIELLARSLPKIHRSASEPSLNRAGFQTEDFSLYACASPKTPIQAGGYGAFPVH
T5 sequence (P10721 with tags, fused parts or gaps): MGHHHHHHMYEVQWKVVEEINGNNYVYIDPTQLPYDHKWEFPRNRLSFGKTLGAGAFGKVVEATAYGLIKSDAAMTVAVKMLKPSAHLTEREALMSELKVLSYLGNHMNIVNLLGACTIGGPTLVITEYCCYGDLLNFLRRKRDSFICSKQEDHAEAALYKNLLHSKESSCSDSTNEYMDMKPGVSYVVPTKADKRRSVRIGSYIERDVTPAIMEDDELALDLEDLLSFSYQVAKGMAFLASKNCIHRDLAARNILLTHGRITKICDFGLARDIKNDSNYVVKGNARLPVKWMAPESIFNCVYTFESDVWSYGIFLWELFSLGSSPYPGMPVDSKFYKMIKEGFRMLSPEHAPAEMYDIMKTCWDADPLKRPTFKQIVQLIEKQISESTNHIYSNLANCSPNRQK
T3 sequence (P04049 whole entry): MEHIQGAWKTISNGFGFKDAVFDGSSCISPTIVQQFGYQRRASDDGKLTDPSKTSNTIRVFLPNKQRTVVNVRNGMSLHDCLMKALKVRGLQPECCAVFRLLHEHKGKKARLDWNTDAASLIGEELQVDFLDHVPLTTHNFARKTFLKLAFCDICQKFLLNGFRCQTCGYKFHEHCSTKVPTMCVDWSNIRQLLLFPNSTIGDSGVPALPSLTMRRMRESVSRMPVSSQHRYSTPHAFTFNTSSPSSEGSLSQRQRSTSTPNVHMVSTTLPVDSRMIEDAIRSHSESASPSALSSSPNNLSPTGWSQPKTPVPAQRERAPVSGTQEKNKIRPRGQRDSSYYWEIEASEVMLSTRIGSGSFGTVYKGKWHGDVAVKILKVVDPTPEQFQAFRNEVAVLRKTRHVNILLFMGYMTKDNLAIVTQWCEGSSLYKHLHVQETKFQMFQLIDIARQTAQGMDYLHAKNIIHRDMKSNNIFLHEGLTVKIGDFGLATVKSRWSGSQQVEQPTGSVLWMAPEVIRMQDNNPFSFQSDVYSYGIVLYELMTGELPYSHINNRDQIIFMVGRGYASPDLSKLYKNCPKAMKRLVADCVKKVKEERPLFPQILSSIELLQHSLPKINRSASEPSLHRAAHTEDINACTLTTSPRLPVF

| IC50 (B-Raf) | IC50 (B-Raf V600E) | IC50 (c-Raf-1) | Structure (SMILES) | further results |
| --- | --- | --- | --- | --- |
| ≤ 10 µM | ≤ 10 µM | ≤ 10 µM | COC(c1ccc(NCc2ccc(C(F)(F)F)cc2)nc1)c1c[nH]c2ncccc12 (stereo not shown) [Compound P-0382] |  |
|  | ≤ 10 µM | ≤ 10 µM | COc1cccc(Cc2c[nH]c3ncc(Br)cc23)c1F [Compound P-0535, 5-Bromo-3-(2-fluoro-3-methoxy-benzyl)-1H-pyrrolo[2,3-b]pyridine] | IC50 (Fms): ≤ 10 µM; IC50 (Kit): ≤ 10 µM; IC50 (FGFR1): ≤ 10 µM |
|  |  |  | Cc1cc(C(=O)c2c[nH]c3ncc(-c4ccc(C(N)=O)cc4)cc23)nn1C [Compound P-0749] | IC50 (Flt1): ≤ 10 µM; IC50 (Ret): ≤ 10 µM; IC50 (Kit): ≤ 10 µM; IC50 (FGFR1): ≤ 10 µM |
| ≤ 10 µM | ≤ 10 µM | ≤ 10 µM | CCCS(=O)(=O)Nc1ccc(Cl)c(C(=O)c2c[nH]c3ncc(-c4ccccc4)cc23)c1F [Compound P-0776, Propane-1-sulfonic acid [4-chloro-2-fluoro-3-(5-phenyl-1H-pyrrolo[2,3-b]pyridine-3-carbonyl)-phenyl]-amide] | IC50 (Kit): ≤ 10 µM; IC50 (FGFR1): ≤ 10 µM |
| ≤ 10 µM | ≤ 10 µM | ≤ 10 µM | COC(c1ccc(N(Cc2ccc(Cl)cc2)C(=O)OC(C)(C)C)nc1)c1c[nH]c2ncc(Br)cc12 (stereo not shown) [Compound P-0779] |  |
| ≤ 10 µM | ≤ 10 µM | ≤ 10 µM | O=C(Nc1ccc(F)c(C(=O)c2c[nH]c3ncccc23)c1F)OCc1ccccc1 [Compound P-0894, [2,4-Difluoro-3-(1H-pyrrolo[2,3-b]pyridine-3-carbonyl)-phenyl]-carbamic acid benzyl ester] | IC50 (FGFR1): ≤ 10 µM |
| ≤ 10 µM |  | ≤ 10 µM | CC(=O)Nc1cccc(Nc2ccnc3[nH]ccc23)c1 [Compound P-0941] |  |
| ≤ 10 µM | ≤ 10 µM | ≤ 10 µM | O=S(=O)(Nc1ccc(F)c(C(O)c2c[nH]c3ncc(Br)cc23)c1F)c1ccccc1 (stereo not shown) [Compound P-0959] |  |
| ≤ 10 µM |  | ≤ 10 µM | O=[N+]([O-])c1cccc(Nc2ccnc3[nH]ccc23)c1 [Compound P-0973] |  |
|  |  | ≤ 10 µM | COC(=O)Nc1ccc(F)c(C(=O)c2c[nH]c3ncccc23)c1F [Compound P-0974, [2,4-Difluoro-3-(1H-pyrrolo[2,3-b]pyridine-3-carbonyl)-phenyl]-carbamic acid methyl ester] | IC50 (FGFR1): ≤ 10 µM |
| ≤ 10 µM |  | ≤ 10 µM | c1ccc2cc(Nc3ccnc4[nH]ccc34)ccc2c1 [Compound P-0975] |  |
| ≤ 10 µM |  | ≤ 10 µM | Fc1ccc(Nc2ccnc3[nH]ccc23)cc1F [Compound P-0987] |  |
| ≤ 10 µM | ≤ 10 µM | ≤ 10 µM | O=S(=O)(Nc1ccc(F)c(C(O)c2c[nH]c3ncc(F)cc23)c1F)c1ccccc1 (stereo not shown) [Compound P-1003] |  |
| ≤ 10 µM | ≤ 10 µM | ≤ 10 µM | CCCS(=O)(=O)Nc1ccc(Cl)c(C(=O)c2c[nH]c3ncc(Cl)cc23)c1F [Compound P-1004, Propane-1-sulfonic acid [4-chloro-3-(5-chloro-1H-pyrrolo[2,3-b]pyridine-3-carbonyl)-2-fluoro-phenyl]-amide] | IC50 (FGFR1): ≤ 10 µM |
| ≤ 10 µM | ≤ 10 µM | ≤ 10 µM | Cc1nc2ccc(Nc3ccnc4[nH]ccc34)cc2s1 [Compound P-1014] |  |
|  | ≤ 10 µM | ≤ 10 µM | O=C(c1c(F)ccc(NS(=O)(=O)c2ccc(Cl)c(Cl)c2)c1F)c1c[nH]c2ncccc12 [Compound P-1015, 3,4-Dichloro-N-[2,4-difluoro-3-(1H-pyrrolo[2,3-b]pyridine-3-carbonyl)-phenyl]-benzenesulfonamide] | IC50 (FGFR1): ≤ 10 µM |
| ≤ 10 µM | ≤ 10 µM | ≤ 10 µM | CCCS(=O)(=O)Nc1cccc(C(=O)c2c[nH]c3ncc(F)cc23)c1F [Compound P-1028, propane-1-sulfonic acid [2-fluoro-3-(5-fluoro-1H-pyrrolo[2,3-b]pyridine-3-carbonyl)-phenyl]-amide] |  |

| IC50 (B-Raf) | IC50 (B-Raf V600E) | IC50 (c-Raf-1) | Structure (SMILES) | further results |
| --- | --- | --- | --- | --- |
|  | ≤ 10 µM | ≤ 10 µM | Fc1cnc2[nH]ccc2c1 [Compound P-1061] |  |
|  | ≤ 10 µM | ≤ 10 µM | Clc1cnc2[nH]ccc2c1 [Compound P-1063] |  |
|  | ≤ 10 µM | ≤ 10 µM | COC(c1ccc(NCc2ccc(Cl)c(C(F)(F)F)c2)nc1)c1c[nH]c2ncccc12 (stereo not shown) [Compound P-1064] |  |
|  | ≤ 10 µM | ≤ 10 µM | COc1cccc(Nc2ccnc3[nH]ccc23)c1 [Compound P-1065] |  |
|  | ≤ 10 µM | ≤ 10 µM | CCC(C(=O)c1c[nH]c2ncccc12)S(=O)(=O)Nc1cc(F)cc(F)c1 (stereo not shown) [Compound P-1070] |  |
|  | ≤ 10 µM | ≤ 10 µM | CCCS(=O)(=O)Nc1ccc(F)c(C(O)c2c[nH]c3ncc(N4CCOCC4)cc23)c1F (stereo not shown) [Compound P-1071] |  |
| ≤ 10 µM |  | ≤ 10 µM | CCOc1cccc(Nc2ccnc3[nH]ccc23)c1 [Compound P-1076] |  |
|  |  | ≤ 10 µM | CCCNC(=O)c1ccc(OC)c(C(=O)c2c[nH]c3ncc(-c4cccnc4)cc23)c1F [Compound P-1077] |  |
|  |  | ≤ 10 µM | CCCNS(=O)(=O)c1ccc(OC)c(C(=O)c2c[nH]c3ncc(-c4cccnc4)cc23)c1F [Compound P-1078] | IC50 (FGFR1): ≤ 10 µM |
|  |  | ≤ 10 µM | CC(C)Oc1cccc(Nc2ccnc3[nH]ccc23)c1 [Compound P-1079] |  |
|  |  | ≤ 10 µM | c1cc2cc(N3CCOCC3)cnc2[nH]1 [Compound P-1118] |  |
|  |  | ≤ 10 µM | CC1CCN(c2cnc3[nH]ccc3c2)CC1 [Compound P-1122] |  |
| ≤ 10 µM | ≤ 10 µM | ≤ 10 µM | CCCS(=O)(=O)Nc1ccc(F)c(C(O)c2c[nH]c3ncc(OC)cc23)c1F (stereo not shown) [Compound P-1243, Propane-1-sulfonic acid {2,4-difluoro-3-[hydroxy-(5-methoxy-1H-pyrrolo[2,3-b]pyridin-3-yl)-methyl]-phenyl}-amide] |  |
|  | ≤ 10 µM | ≤ 10 µM | CCCC(=O)Nc1ccc(F)c(C(=O)c2c[nH]c3ncc(Br)cc23)c1F [Compound P-1283] | IC50 (FGFR1): ≤ 10 µM |
|  | ≤ 10 µM | ≤ 10 µM | O=C(c1cccc(OC(F)(F)F)c1)c1c[nH]c2ncc(-c3cccnc3)cc12 [Compound P-1413, (5-Pyridin-3-yl-1H-pyrrolo[2,3-b]pyridin-3-yl)-(3-trifluoromethoxy-phenyl)-methanone] | IC50 (Kit): ≤ 10 µM |
| ≤ 10 µM | ≤ 10 µM | ≤ 10 µM | CCCS(=O)(=O)Nc1ccc(F)c(C(=O)c2c[nH]c3ncc(C(=O)NCC)cc23)c1F [Compound P-1630, 3-[2,6-difluoro-3-(propane-1-sulfonylamino)-benzoyl]-1H-pyrrolo[2,3-b]pyridine-5-carboxylic acid ethylamide] | IC50 (Fms): ≤ 10 µM; IC50 (Kit): ≤ 10 µM |
| ≤ 10 µM | ≤ 10 µM | ≤ 10 µM | O=C(Nc1cccc(C(=O)c2c[nH]c3ncc(Cl)cc23)c1)Nc1cc(C(F)(F)F)ccc1Cl [Compound P-1738, 1-[3-(5-Chloro-1H-pyrrolo[2,3-b]pyridine-3-carbonyl)-phenyl]-3-(2-chloro-5-trifluoromethyl-phenyl)-urea] | IC50 (Fms): ≤ 10 µM |

| Structure (SMILES) | IC50 (B-Raf) | IC50 (B-Raf V600E) | IC50 (c-Raf-1) | further results |
| --- | --- | --- | --- | --- |
| CCCCOc1ccc(S(=O)(=O)Nc2ccc(F)c(C(=O)c3c[nH]c4ncccc34)c2F)cc1 [Compound P-1006, 4-Butoxy-N-[2,4-difluoro-3-(1H-pyrrolo[2,3-b]pyridine-3-carbonyl)-phenyl]-benzenesulfonamide] | ≤ 10 µM | ≤ 10 µM | ≤ 10 µM |  |
